The values that follow come from patent US20080274892A1, “Novel Haloalkylsulfonanilide Derivative, Herbicide, and Method of Use Thereof” (priority 2005, published 2008).

Series [1] deals with bulrush. The series can be described thus: Test Example 1: herbicidal efficacy on rice paddy weeds pre-emergence. The note with it: 21 days. The format is in vivo, Scirpus juncoides.
For series [2], the system named is false pimpernel. The series is described as above. The note with it: 21 days. The format is in vivo, Lindernia pyxidaria.
Another series concerns barnyard glass. The series can be described thus: Test Example 2: herbicidal efficacy on rice paddy weeds post-emergence. The format is in vivo, Echinochloa crus-galli. The note with it: post-emergence, one leaf stage, 21 days after treatment. A digest of the protocol: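 Plastic pots of 75 cm^2 were filled with clay loam soil and sown with barnyard glass and bulrush seeds, then topped with 75 cm^3 soil containing false pimpernel seeds. The pots were flooded to 5 cm water depth and held in a hot house. Twenty-one days after treatment, herbicidal efficacy was graded against an untreated control.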

Series [3] deals with bulrush. The series is described as above. The series is classed as in vivo, Scirpus juncoides. The conditions noted are these: post-emergence, one leaf stage, 21 days after treatment.
The subject of series [4] is false pimpernel. Described as above. The series is classed as in vivo, Lindernia pyxidaria. The conditions noted are these: post-emergence, one leaf stage, 21 days after treatment.
Series [5] deals with paddy rice plant (cultivar: Nihonbare). In words: Test Example 3: phytotoxicity test for transplanted paddy rice plant. The note with it: transplanted rice, 21 days after treatment. The series is classed as in vivo. A digest of the protocol:
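Clay loam soil was placed in a 75 cm^2 plastic pot and flooded to a water depth of 5 cm. Two Nihonbare paddy rice plants at the two-leaf stage were transplanted 1 cm deep and grown in a hot house. After treatment, pots stayed in the hot house for 21 days, and phytotoxicity was then graded against an untreated control.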

In series [6] the test system is bulrush. In words: Test Example 4: low dosage test for rice paddy weeds. The conditions noted are these: 300 g/ha as an active ingredient; plants treated at the one leaf stage; 21 days after treatment; vs untreated control. The series is classed as in vivo, Scirpus juncoides. The method, boiled down: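 Bulrush sown in clay loam pots, flooded to 5 cm water in a hot house, treated at the one-leaf stage with formulated compound at 300 g/ha. Efficacy scored 0–4 against untreated control 21 days after treatment (4 = 90–100%, 0 = 0% inhibition).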

In series [7] the test system is transplanted paddy rice plant and Bulrush. The series can be described thus: Test Example 5: selectivity between transplanted paddy rice plant and weeds. The format is in vivo. The note with it: (highest dosage with no phytotoxicity to paddy rice)/(lowest dosage with effective level 4 on Bulrush); rice 3000-100 g/ha, Bulrush 300-10 g/ha; 21 days. A digest of the protocol:
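Transplanted paddy rice was treated at 3000, 1000, 300 and 100 g/ha active ingredient for phytotoxicity, and post-emergence bulrush at 300, 100, 30 and 10 g/ha. Plants were kept in a hothouse for 21 days. Growth inhibition versus untreated control was scored 0–4 (0%, 1–39%, 40–69%, 70–89%, 90–100%).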

Setting [8] is: dosage 1000 g/ha, treated 5 days after transplantation.

One may read the melting point as the temperature of the solid-liquid transition. `CCC1COC(=O)N1Cc1ccccc1NS(=O)(=O)C(F)(F)F` (stereo not drawn) [Compound No. 1-5, 4-ethyl-3-[2-(trifluoromethanesulfonylamino)benzyl]-2-oxazolidinone] yielded a melting point of 81.4 to 83.6 °C. For the same compound, the “Bulrush pre (herbicidal efficacy grade)” value in the series with bulrush [1] (dosage 1000 g/ha) is reported as 4 (90%-100% of herbicidal efficacy or phytotoxicity). In the series on false pimpernel [2] (dosage 1000 g/ha), the “False pimpernel pre (herbicidal efficacy grade)” value (“False pimpernel pre” for short) was 4 (90%-100% of herbicidal efficacy or phytotoxicity). In the series on barnyard glass (dosage 1000 g/ha), the “Burnyard grass post (herbicidal efficacy grade)” value (shortened to “Burnyard grass post”) is on record as 4 (90%-100% of herbicidal efficacy or phytotoxicity). Besides, in the series on bulrush [3] (dosage 1000 g/ha), the “Bulrush post (herbicidal efficacy grade)” value is recorded as 4 (90%-100% of herbicidal efficacy or phytotoxicity). Further, in the series with false pimpernel [4] (dosage 1000 g/ha), the “False pimpernel post (herbicidal efficacy grade)” value (“False pimpernel post” for short) is reported as 4 (90%-100% of herbicidal efficacy or phytotoxicity). Further, in series [5] (setting [8]), the “Phytotoxicity to paddy rice” value is 2 (40%-69% of herbicidal efficacy or phytotoxicity). Moreover, the “Herbicide effect to Bulrush” value in the series on bulrush [6] is 4 (90%-100% of herbicidal efficacy or phytotoxicity). Moreover, the “Selective Index” value in series [7] is “≧10”.

In turn, `CCC1COC(=O)N1Cc1ccccc1N(C(=O)OCC(C)C)S(=O)(=O)C(F)(F)F` (stereo not drawn) [Compound No. 1-6, 4-ethyl-3-{2-[N-(isobutoxycarbonyl)-N-(trifluoromethanesulfonyl)amino]benzyl}-2-oxazolidinone] returned a melting point of 69.3 to 71.7 °C. For the same compound, the “Bulrush pre (herbicidal efficacy grade)” value in the series on bulrush [1] (dosage 1000 g/ha) was 4 (90%-100% of herbicidal efficacy or phytotoxicity). Further, in the series with false pimpernel [2] (dosage 1000 g/ha), the “False pimpernel pre” value was 4 (90%-100% of herbicidal efficacy or phytotoxicity). In addition, the “Burnyard grass post” value in the series on barnyard glass (dosage 1000 g/ha) is on record as 4 (90%-100% of herbicidal efficacy or phytotoxicity). Moreover, the “Bulrush post (herbicidal efficacy grade)” value with bulrush [3] (dosage 1000 g/ha) is on record as 4 (90%-100% of herbicidal efficacy or phytotoxicity). Moreover, the “False pimpernel post” value in the series with false pimpernel [4] (dosage 1000 g/ha) is given as 4 (90%-100% of herbicidal efficacy or phytotoxicity). In addition, the “Phytotoxicity to paddy rice” value in series [5] (setting [8]) is recorded as 1 (1%-39% of herbicidal efficacy or phytotoxicity). The “Herbicide effect to Bulrush” value with bulrush [6] was 3 (70%-89% of herbicidal efficacy or phytotoxicity). The “Selective Index” value in series [7] is listed as 3.

In turn, `CC1(C)COC(=O)N1Cc1ccccc1NS(=O)(=O)C(F)(F)F` [Compound No. 1-15, 4,4-dimethyl-3-[2-(trifluoromethanesulfonylamino)benzyl]-2-oxazolidinone] registered a melting point of 134.9 °C. Also, the “Bulrush pre (herbicidal efficacy grade)” value in the series with bulrush [1] (dosage 1000 g/ha) was 4 (90%-100% of herbicidal efficacy or phytotoxicity). For the same compound, the “False pimpernel pre” value with false pimpernel [2] (dosage 1000 g/ha) is recorded as 4 (90%-100% of herbicidal efficacy or phytotoxicity). Further, in the series on barnyard glass (dosage 1000 g/ha), the “Burnyard grass post” value is listed as 4 (90%-100% of herbicidal efficacy or phytotoxicity). Besides, in the series with bulrush [3] (dosage 1000 g/ha), the “Bulrush post (herbicidal efficacy grade)” value is given as 4 (90%-100% of herbicidal efficacy or phytotoxicity). Moreover, the “False pimpernel post” value in the series on false pimpernel [4] (dosage 1000 g/ha) is 4 (90%-100% of herbicidal efficacy or phytotoxicity). Moreover, in [5] (setting [8]), the “Phytotoxicity to paddy rice” value is on record as 1 (1%-39% of herbicidal efficacy or phytotoxicity). Besides, in the series with bulrush [6], the “Herbicide effect to Bulrush” value is listed as 4 (90%-100% of herbicidal efficacy or phytotoxicity). The “Selective Index” value in [7] is listed as 10.

`CC(C)COC(=O)N(c1ccccc1CN1C(=O)OCC1(C)C)S(=O)(=O)C(F)(F)F` [Compound No. 1-16, 4,4-dimethyl-3-{2-[N-(isobutoxycarbonyl)-N-(trifluoromethanesulfonyl)amino]benzyl}-2-oxazolidinone] yielded a melting point of 65 to 65.8 °C. In addition, the “Bulrush pre (herbicidal efficacy grade)” value in the series with bulrush [1] (dosage 1000 g/ha) is given as 4 (90%-100% of herbicidal efficacy or phytotoxicity). The “False pimpernel pre” value in the series on false pimpernel [2] (dosage 1000 g/ha) is 4 (90%-100% of herbicidal efficacy or phytotoxicity). Also, in the series on barnyard glass (dosage 1000 g/ha), the “Burnyard grass post” value was 4 (90%-100% of herbicidal efficacy or phytotoxicity). Further, the “Bulrush post (herbicidal efficacy grade)” value in the series with bulrush [3] (dosage 1000 g/ha) is listed as 4 (90%-100% of herbicidal efficacy or phytotoxicity). The “False pimpernel post” value with false pimpernel [4] (dosage 1000 g/ha) was 4 (90%-100% of herbicidal efficacy or phytotoxicity). For the same compound, the “Phytotoxicity to paddy rice” value in series [5] (setting [8]) was 0 (0% of herbicidal efficacy or phytotoxicity). The “Herbicide effect to Bulrush” value with bulrush [6] was 4 (90%-100% of herbicidal efficacy or phytotoxicity). Also, the “Selective Index” value in [7] worked out at 33.

On to `CC(C)COC(=O)N(c1ccccc1CN1C(=O)OC(C)(C)C1=O)S(=O)(=O)C(F)(F)F` [Compound No. 1-189, 3-{2-[N-(isobutoxycarbonyl)-N-(trifluoromethanesulfonyl)amino]benzyl}-5,5-dimethyloxazolidine-2,4-dione], for which the “Bulrush pre (herbicidal efficacy grade)” value in the series on bulrush [1] (dosage 1000 g/ha) is on record as 4 (90%-100% of herbicidal efficacy or phytotoxicity). For the same compound, the “False pimpernel pre” value with false pimpernel [2] (dosage 1000 g/ha) is reported as 4 (90%-100% of herbicidal efficacy or phytotoxicity). In addition, the “Burnyard grass post” value in the series on barnyard glass (dosage 1000 g/ha) is recorded as 4 (90%-100% of herbicidal efficacy or phytotoxicity). In the series with bulrush [3] (dosage 1000 g/ha), the “Bulrush post (herbicidal efficacy grade)” value was 4 (90%-100% of herbicidal efficacy or phytotoxicity). For the same compound, in the series with false pimpernel [4] (dosage 1000 g/ha), the “False pimpernel post” value is 4 (90%-100% of herbicidal efficacy or phytotoxicity). Moreover, the “Phytotoxicity to paddy rice” value in [5] (setting [8]) is 1 (1%-39% of herbicidal efficacy or phytotoxicity). Further, the “Herbicide effect to Bulrush” value in the series on bulrush [6] is on record as 4 (90%-100% of herbicidal efficacy or phytotoxicity). The “Selective Index” value in series [7] is reported as “≧10”.

Consider `CC1(C)OC(=O)N(Cc2ccccc2NS(=O)(=O)C(F)(F)F)C1O` (stereo not drawn) [Compound No. 1-194, 4-hydroxy-5,5-dimethyl-3-[2-(trifluoromethanesulfonylamino)benzyl]oxazolidin-2-one], for which the melting point was 88 to 92 °C.

Turning to `COC1N(Cc2ccccc2N(C(=O)OCC(C)C)S(=O)(=O)C(F)(F)F)C(=O)OC1(C)C` (stereo not drawn) [Compound No. 1-197, 3-{2-[N-(isobutoxycarbonyl)-N-(trifluoromethanesulfonyl)-amino]benzyl}-4-methoxy-5,5-dimethyloxazolidin-2-one], in the series with bulrush [1] (dosage 300 g/ha), the “Bulrush pre (herbicidal efficacy grade)” value is listed as 4 (90%-100% of herbicidal efficacy or phytotoxicity). For the same compound, the “False pimpernel pre” value in the series on false pimpernel [2] (dosage 300 g/ha) was 3 (70%-89% of herbicidal efficacy or phytotoxicity). Further, in the series with barnyard glass (dosage 300 g/ha), the “Burnyard grass post” value is listed as 4 (90%-100% of herbicidal efficacy or phytotoxicity). The “Bulrush post (herbicidal efficacy grade)” value with bulrush [3] (dosage 300 g/ha) is 4 (90%-100% of herbicidal efficacy or phytotoxicity). Also, the “False pimpernel post” value in the series on false pimpernel [4] (dosage 300 g/ha) is 1 (1%-39% of herbicidal efficacy or phytotoxicity). Besides, in series [5] (dosage 300 g/ha), the “Phytotoxicity to paddy rice” value was 2 (40%-69% of herbicidal efficacy or phytotoxicity). For the same compound, the “Herbicide effect to Bulrush” value in the series on bulrush [6] is listed as 4 (90%-100% of herbicidal efficacy or phytotoxicity). Moreover, the “Selective Index” value in series [7] came out at 10.

`Cc1cn(Cc2ccccc2NS(=O)(=O)C(F)(F)F)c(=O)o1` [Compound No. 1-207, 5-methyl-3-[2-(trifluoromethanesulfonylamino)benzyl]-4-oxazolin-2-one] had a melting point of 120.2 to 121.2 °C. For the same compound, in the series on bulrush [1] (dosage 300 g/ha), the “Bulrush pre (herbicidal efficacy grade)” value was 4 (90%-100% of herbicidal efficacy or phytotoxicity). For the same compound, the “False pimpernel pre” value in the series with false pimpernel [2] (dosage 300 g/ha) is listed as 4 (90%-100% of herbicidal efficacy or phytotoxicity). The “Burnyard grass post” value in the series on barnyard glass (dosage 300 g/ha) is listed as 0 (0% of herbicidal efficacy or phytotoxicity). Moreover, the “Bulrush post (herbicidal efficacy grade)” value with bulrush [3] (dosage 300 g/ha) is listed as 4 (90%-100% of herbicidal efficacy or phytotoxicity). For the same compound, the “False pimpernel post” value in the series with false pimpernel [4] (dosage 300 g/ha) is on record as 1 (1%-39% of herbicidal efficacy or phytotoxicity). Also, in [5] (dosage 300 g/ha), the “Phytotoxicity to paddy rice” value was 1 (1%-39% of herbicidal efficacy or phytotoxicity).

`Cc1cn(Cc2ccccc2N(C(=O)OCC(C)C)S(=O)(=O)C(F)(F)F)c(=O)o1` [Compound No. 1-208, 3-{2-[N-(isobutoxycarbonyl)-N-(trifluoromethanesulfonyl)amino]benzyl}-5-methyl-4-oxazolin-2-one] yielded a melting point of 60.3 to 68.6 °C. In addition, the “Bulrush pre (herbicidal efficacy grade)” value in the series on bulrush [1] (dosage 300 g/ha) is recorded as 4 (90%-100% of herbicidal efficacy or phytotoxicity). In addition, in the series with false pimpernel [2] (dosage 300 g/ha), the “False pimpernel pre” value was 4 (90%-100% of herbicidal efficacy or phytotoxicity). Moreover, the “Bulrush post (herbicidal efficacy grade)” value in the series on bulrush [3] (dosage 300 g/ha) is 4 (90%-100% of herbicidal efficacy or phytotoxicity). Also, in the series with false pimpernel [4] (dosage 300 g/ha), the “False pimpernel post” value was 1 (1%-39% of herbicidal efficacy or phytotoxicity). The “Phytotoxicity to paddy rice” value in [5] (dosage 300 g/ha) is 0 (0% of herbicidal efficacy or phytotoxicity).
